PMC5803267, “A small molecule inhibitor of Rheb selectively targets mTORC1 signaling” (Nature Communications, 2018)

How the values were obtained:
[1] = system: T389pS6K1 (mTORC1 activity) in MCF-7 cells; assay: T389pS6K1 AlphaLISA assay in MCF-7 cells; type: cell-based, human
Source text: (§1) We next evaluated the activity of NR1 in cell culture. Selective inhibition of mTORC1 in cells produces a specific signaling signature characterized by a reduction in phosphorylation of the mTORC1 substrates S6K1 and 4E-BP1 and increase in phosphorylation of AKT, catalyzed by mTORC2. This distinctive profile reflects the relief of a feedback loop where active S6K1 directly phosphorylates IRS1, resulting in the degradation of IRS1 and subsequent reduction of growth factor signaling from RTKs to downstream effectors such as AKT[1]. Conversely, reduction in ^T389pS6K1 is expected to lead to an increase in ^S473pAKT levels. We used AlphaLISA assays to detect ^T389pS6K1 and ^S473pAKT in MCF-7 cells. […]
(§2) Evaluation of NR1 in MCF-7 under replete conditions. […] The indicated phosphoproteins were detected using AlphaLISA assays for T389pS6K1 (reflecting mTORC1 activity) and S473pAKT (reflecting mTORC2 activity). […]
(§3) The compounds were added to the kinase reaction mixture by Acoustic technology (Echo550; nanoliter range) and incubated for 20 min at room temperature before the addition of 100 µM 33P-ATP. The reaction was incubated for 2 h at room temperature, and kinase activity was detected by a P81 filter- […]
(§4) AlphaLISA assays. […] The AlphaLISA protocol was performed in 384-well plates as instructed by Perkin Elmer, and the plates were read on an EnVision plate reader. […]

[2] = system: S473pAKT (mTORC2 activity) in MCF-7 cells; assay: S473pAKT AlphaLISA assay in MCF-7 cells; type: cell-based, human; details: MCF-7, replete conditions, 120 min, dose-dependent
Source text: as §1, §2, §3, §4

[3] = system: T202/Y204pERK1/2 (Ras/ERK pathway) in MCF-7 cells; assay: EGF-induced T202/Y204pERK1/2 Western blot in MCF-7 cells; type: cell-based, human; details: MCF-7 serum-starved 16 h, compound 90 min, 100 ng mL^−1 EGF
Procedure: MCF-7 cells were serum-starved for 16 h and treated with compound for 90 min before cell lysis and Western blot analysis. For insulin-stimulated cells, 100 nM insulin was added 30 min before cell lysis. For EGF-stimulated cells, 100 ng mL^−1 EGF was added 10 min before cell lysis. c Rap1 activity was detected in lysates loaded in vitro with either GDP or GTPγS and treated with NR1 at the indicated concentrations. This was followed by a subsequent pulldown of GST-RalGDS-RBD. Bound Rap1 was detected by Western blot. d Evaluation of NR1 in a LAM patient-derived cell line (TRI102) under replete and serum-starved conditions. For replete conditions, TRI102 cells were treated for 90 min with compound in DMEM + 10% FBS. For serum-starved conditions, TRI102 cells were serum-starved 16 h and then treated for 90 min with compound prior to cell lysis and Western blot analysis. e HEK293 cells co-transfected with the indicated mTOR constructs and HA-GST-S6K1 were starved of amino acids or treated with NR1. To assess mTORC1 activity, an HA IP was performed and Western blots probed for ^T389pS6K1. f Chronic treatment of PC3 cells with NR1 to evaluate the inhibition of mTORC1 (using ^T389pS6K1) versus mTORC2 (using ^S473pAKT). PC3 cells were treated with compound under replete conditions for 24 h prior to cell lysis and Western blot analysis. […]

[4] = system: T389pS6K1 (mTORC1) in PC3 cells; assay: Chronic treatment of PC3 cells, T389pS6K1 Western blot; type: cell-based, human
Procedure: MCF-7 cells were serum-starved for 16 h and treated with compound for 90 min before cell lysis and Western blot analysis. For insulin-stimulated cells, 100 nM insulin was added 30 min before cell lysis. For EGF-stimulated cells, 100 ng mL^−1 EGF was added 10 min before cell lysis. c Rap1 activity was detected in lysates loaded in vitro with either GDP or GTPγS and treated with NR1 at the indicated concentrations. This was followed by a subsequent pulldown of GST-RalGDS-RBD. Bound Rap1 was detected by Western blot. d Evaluation of NR1 in a LAM patient-derived cell line (TRI102) under replete and serum-starved conditions. For replete conditions, TRI102 cells were treated for 90 min with compound in DMEM + 10% FBS. For serum-starved conditions, TRI102 cells were serum-starved 16 h and then treated for 90 min with compound prior to cell lysis and Western blot analysis. e HEK293 cells co-transfected with the indicated mTOR constructs and HA-GST-S6K1 were starved of amino acids or treated with NR1. To assess mTORC1 activity, an HA IP was performed and Western blots probed for ^T389pS6K1. f Chronic treatment of PC3 cells with NR1 to evaluate the inhibition of mTORC1 (using ^T389pS6K1) versus mTORC2 (using ^S473pAKT). PC3 cells were treated with compound under replete conditions for 24 h prior to cell lysis and Western blot analysis.
Accordingly, a hallmark of a selective mTORC1 inhibitor such as NR1 would be the lack of mTORC2 inhibition irrespective of the duration of treatment. PC3 cells are sensitive to mTORC2 inhibition with long-term rapamycin treatment. Indeed, upon treatment with rapamycin for 24 h, both ^T389pS6K1 and ^S473pAKT were lowered, indicating inhibitory effects on both mTORC1 and mTORC2, respectively.
For Western-based signaling assays, cells were treated for either 90 min or 2–24 h as indicated before lysis, normalization, and Western analysis. Cells were lysed in Triton lysis buffer: 1% Triton X-100, 50 mM HEPES pH 7.4, 100 mM NaCl, 2 mM EDTA, 10 mM β-glycerophosphate, 10 mM Na-pyrophosphate, protease inhibitor.

Aqueous solubility = type: physicochemical; details: result in words
pS6K1 in MCF-7 cells = assay: Insulin-stimulated mTORC1 signaling Western blot in MCF-7 cells; type: cell-based, human; details: MCF-7, 10 µM NR1
Source text: as §1, with “cells. During the development of the assays, we noticed that ^T389pS6K1 was more responsive to our compound series than ^T37/46p4E-BP1, which may be due to differences in mTORC1 substrate classes in a cellular setting.” for “cells.”
MCF-7 cells were serum-starved for 16 h and treated with compound for 90 min before cell lysis and Western blot analysis. […] For EGF-stimulated cells, 100 ng mL^−1 EGF was added 10 min before cell lysis. c Rap1 activity was detected in lysates loaded in vitro with either GDP or GTPγS and treated with NR1 at the indicated concentrations. […] Bound Rap1 was detected by Western blot. d Evaluation of NR1 in a LAM patient-derived cell line (TRI102) under replete and serum-starved conditions. […]

CN(C)C(=O)c1ccc(Cn2c(C(=O)O)cc3c(Br)cc(Sc4ccc(Cl)c(Cl)c4)cc32)cc1 [NR1, 4-bromo-6-(3,4-dichlorophenylthio)-1-(4-(dimethylcarbamoyl)benzyl)-1H-indole-2-carboxylic acid]
IC50 ([1]; Homo sapiens, MCF7, inhibition of S6K phosphorylation in cells, read-out: potency in cellular assays): 2000 nM | phosphorylation of T389pS6K1 ([1]; MCF-7, replete conditions, 120 min, dose-dependent): inhibited the phosphorylation | phosphorylation of S473pAKT [2]: increased the phosphorylation | EGF-induced phosphorylation of T202/Y204pERK1/2 [3]: did not inhibit | T389pS6K1 after 24 h treatment ([4]; PC3, replete, 24 h, NR1 30 µM, rapamycin 100 nM): potent inhibition | pS6K1 over time course ([4]; PC3, time points 2 h through 24 h): inhibits pS6K1 | aqueous solubility (Aqueous solubility): low aqueous solubility | S6K1 phosphorylation compared with rapamycin (pS6K1 in MCF-7 cells): does not inhibit S6K1 phosphorylation as well as 100 nM rapamycin
